Data taken from PMC8500670, “A selective WDR5 degrader inhibits acute myeloid leukemia in patient-derived mouse models” (Science translational medicine, 2021).

Tests used:
Test in all cases: biochemical
[1] = biological target: T1, 5-HT1D (Homo sapiens, UniProt P28221); parameters: GPCR, ion channel and transporter panel, per cent inhibition of binding, mean of four
T1 construct: gene HTR1D
Description: (§1) We next assessed selectivity of MS67 against 22 protein methyltransferases (table S2) and a broad panel of common drug targets including 45 kinases (table S3) and 44 G protein–coupled receptors (GPCR), ion channels, and transporters (table S4). […] We subsequently determined that MS67 had moderate binding affinity (Ki = 1.0 ± 0.8 μM) to Sigma 2 receptor (fig. S10).

[2] = biological target: T2, NET (Homo sapiens, UniProt P23975); parameters: GPCR, ion channel and transporter panel, per cent inhibition of binding, mean of four
T2 construct: gene SLC6A2
T2 sequence (P23975 whole entry): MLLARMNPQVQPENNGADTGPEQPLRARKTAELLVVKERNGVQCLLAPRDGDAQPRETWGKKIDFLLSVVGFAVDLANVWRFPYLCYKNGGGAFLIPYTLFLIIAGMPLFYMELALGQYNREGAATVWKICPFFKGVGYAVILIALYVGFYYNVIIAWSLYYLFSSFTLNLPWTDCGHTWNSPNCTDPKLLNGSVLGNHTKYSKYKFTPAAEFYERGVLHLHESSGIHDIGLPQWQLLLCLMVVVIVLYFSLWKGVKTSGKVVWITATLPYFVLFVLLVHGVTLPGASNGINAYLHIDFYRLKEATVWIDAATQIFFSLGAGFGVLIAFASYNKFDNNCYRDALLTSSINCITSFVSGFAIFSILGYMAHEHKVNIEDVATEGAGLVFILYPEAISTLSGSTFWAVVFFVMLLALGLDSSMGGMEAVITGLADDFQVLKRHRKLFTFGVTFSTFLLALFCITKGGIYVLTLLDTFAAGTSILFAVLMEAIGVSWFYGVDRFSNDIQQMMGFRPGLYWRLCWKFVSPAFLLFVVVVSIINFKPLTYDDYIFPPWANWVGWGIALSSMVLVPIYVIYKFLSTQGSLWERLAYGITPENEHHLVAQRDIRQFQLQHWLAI
Description: as §1

[3] = biological target: T3, D1 (Homo sapiens, UniProt P21728); parameters: GPCR, ion channel and transporter panel, per cent inhibition of binding, mean of four
T3 construct: gene DRD1
Description: as §1

[4] = biological target: T4, 5-HT1E (Homo sapiens, UniProt P28566); parameters: GPCR, ion channel and transporter panel, per cent inhibition of binding, mean of four
T4 construct: gene HTR1E
Description: as §1

[5] = biological target: T5, Beta2 (Homo sapiens, UniProt P07550); parameters: GPCR, ion channel and transporter panel, per cent inhibition of binding, mean of four
T5 construct: gene ADRB2
T5 sequence (P07550 whole entry): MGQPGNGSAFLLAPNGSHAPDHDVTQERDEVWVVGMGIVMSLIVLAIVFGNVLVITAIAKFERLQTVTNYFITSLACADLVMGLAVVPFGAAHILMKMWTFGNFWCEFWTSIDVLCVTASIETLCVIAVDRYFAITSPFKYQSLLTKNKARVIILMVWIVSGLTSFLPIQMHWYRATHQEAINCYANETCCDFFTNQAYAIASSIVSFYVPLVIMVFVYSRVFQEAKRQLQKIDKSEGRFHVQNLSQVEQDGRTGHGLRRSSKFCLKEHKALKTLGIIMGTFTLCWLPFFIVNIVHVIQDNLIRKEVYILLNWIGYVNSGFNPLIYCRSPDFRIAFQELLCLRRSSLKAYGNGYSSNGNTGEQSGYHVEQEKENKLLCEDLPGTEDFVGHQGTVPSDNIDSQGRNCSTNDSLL
Description: as §1

[6] = biological target: T6, Alpha1D (Homo sapiens, UniProt P25100); parameters: GPCR, ion channel and transporter panel, per cent inhibition of binding, mean of four
T6 construct: gene ADRA1D
T6 sequence (P25100 whole entry): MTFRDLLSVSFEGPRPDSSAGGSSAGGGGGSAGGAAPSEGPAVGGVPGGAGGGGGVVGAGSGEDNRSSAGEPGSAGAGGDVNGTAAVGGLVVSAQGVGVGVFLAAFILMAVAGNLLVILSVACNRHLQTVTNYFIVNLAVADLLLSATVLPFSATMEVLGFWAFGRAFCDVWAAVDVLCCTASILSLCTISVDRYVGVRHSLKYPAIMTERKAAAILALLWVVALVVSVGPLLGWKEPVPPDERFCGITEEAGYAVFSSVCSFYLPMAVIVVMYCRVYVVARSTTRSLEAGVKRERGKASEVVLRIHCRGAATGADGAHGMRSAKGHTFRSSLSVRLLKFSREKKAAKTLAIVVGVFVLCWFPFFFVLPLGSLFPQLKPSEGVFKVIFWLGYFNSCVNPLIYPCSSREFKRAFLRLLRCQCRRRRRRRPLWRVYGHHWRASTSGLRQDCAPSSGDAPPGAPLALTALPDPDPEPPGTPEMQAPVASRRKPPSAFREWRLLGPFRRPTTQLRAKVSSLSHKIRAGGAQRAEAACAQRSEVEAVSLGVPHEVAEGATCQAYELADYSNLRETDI
Description: as §1

[7] = biological target: T7, H1 (Homo sapiens, UniProt P35367); parameters: GPCR, ion channel and transporter panel, per cent inhibition of binding, mean of four
T7 construct: gene HRH1
T7 sequence (P35367 whole entry): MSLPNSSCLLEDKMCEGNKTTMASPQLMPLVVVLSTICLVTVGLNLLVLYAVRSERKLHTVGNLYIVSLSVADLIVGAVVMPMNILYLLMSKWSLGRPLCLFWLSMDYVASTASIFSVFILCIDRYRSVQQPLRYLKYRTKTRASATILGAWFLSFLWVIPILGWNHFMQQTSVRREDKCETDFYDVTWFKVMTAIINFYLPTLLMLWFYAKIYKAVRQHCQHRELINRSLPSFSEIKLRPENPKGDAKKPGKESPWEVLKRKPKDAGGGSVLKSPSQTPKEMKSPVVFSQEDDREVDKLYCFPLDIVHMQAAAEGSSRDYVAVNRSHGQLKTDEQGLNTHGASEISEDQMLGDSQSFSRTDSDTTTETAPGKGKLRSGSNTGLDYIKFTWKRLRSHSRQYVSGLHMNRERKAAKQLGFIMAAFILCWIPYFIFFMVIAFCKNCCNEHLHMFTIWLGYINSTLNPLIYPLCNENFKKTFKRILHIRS
Description: as §1

[8] = biological target: T8, 5-HT2C (Homo sapiens, UniProt P28335); parameters: GPCR, ion channel and transporter panel, per cent inhibition of binding, mean of four
T8 construct: gene HTR2C
Description: as §1

[9] = biological target: T9, CHK1(h) (Homo sapiens, UniProt O14757); parameters: kinase selectivity panel, activity as per cent of control, single concentration in duplicate; conditions: read-out: % of control remaining
T9 construct: gene CHEK1
Description: as §1

[10] = biological target: EphA2(h) (Homo sapiens, UniProt P29317); parameters: kinase selectivity panel, activity as per cent of control, single concentration in duplicate; conditions: read-out: % of control remaining
Description: as §1

[11] = biological target: T10, PDK1(h) (Homo sapiens, UniProt O15530); parameters: kinase selectivity panel, activity as per cent of control, single concentration in duplicate; conditions: read-out: % of control remaining
T10 construct: gene PDPK1
Description: as §1

[12] = biological target: T11, CaMKIIα(h) (Homo sapiens, UniProt Q9UQM7); parameters: kinase selectivity panel, activity as per cent of control, single concentration in duplicate; conditions: read-out: % of control remaining
T11 construct: gene CAMK2A
T11 sequence (Q9UQM7 whole entry): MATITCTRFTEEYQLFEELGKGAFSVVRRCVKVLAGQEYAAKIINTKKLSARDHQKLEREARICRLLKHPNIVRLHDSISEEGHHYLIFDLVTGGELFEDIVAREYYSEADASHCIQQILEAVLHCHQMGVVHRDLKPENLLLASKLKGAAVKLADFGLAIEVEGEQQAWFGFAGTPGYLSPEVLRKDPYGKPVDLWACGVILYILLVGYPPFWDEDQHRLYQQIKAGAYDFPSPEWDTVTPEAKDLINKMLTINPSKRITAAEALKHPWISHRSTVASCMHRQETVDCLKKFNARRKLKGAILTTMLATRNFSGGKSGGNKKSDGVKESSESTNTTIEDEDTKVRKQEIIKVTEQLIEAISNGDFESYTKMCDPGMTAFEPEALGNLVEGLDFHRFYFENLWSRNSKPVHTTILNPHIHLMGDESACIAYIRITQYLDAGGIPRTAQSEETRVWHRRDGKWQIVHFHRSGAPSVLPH
Description: as §1

[13] = biological target: T12, Pim-2(h) (Homo sapiens, UniProt Q9P1W9); parameters: kinase selectivity panel, activity as per cent of control, single concentration in duplicate; conditions: read-out: % of control remaining
T12 construct: gene PIM2
T12 sequence (Q9P1W9 whole entry): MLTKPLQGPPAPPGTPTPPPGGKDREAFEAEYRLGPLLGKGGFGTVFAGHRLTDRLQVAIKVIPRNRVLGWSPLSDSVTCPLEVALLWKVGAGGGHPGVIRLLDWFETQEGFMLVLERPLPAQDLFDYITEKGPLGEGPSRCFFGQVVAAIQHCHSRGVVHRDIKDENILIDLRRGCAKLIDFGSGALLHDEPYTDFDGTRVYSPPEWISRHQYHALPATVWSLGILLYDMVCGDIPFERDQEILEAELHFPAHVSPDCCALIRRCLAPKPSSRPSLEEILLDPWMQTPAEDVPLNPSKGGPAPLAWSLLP
Description: as §1

[14] = biological target: Lck(h) (Homo sapiens, UniProt P06239); parameters: kinase selectivity panel, activity as per cent of control, single concentration in duplicate; conditions: read-out: % of control remaining
Description: as §1

[15] = biological target: T13, ROCK-I(h) (Homo sapiens, UniProt Q13464); parameters: kinase selectivity panel, activity as per cent of control, single concentration in duplicate; conditions: read-out: % of control remaining
T13 construct: gene ROCK1
Description: as §1

[16] = biological target: T14, cSRC(h) (Homo sapiens, UniProt P12931); parameters: kinase selectivity panel, activity as per cent of control, single concentration in duplicate; conditions: read-out: % of control remaining
T14 construct: gene SRC
Description: as §1

[17] = biological target: FGFR2(h) (Homo sapiens, UniProt P21802); parameters: kinase selectivity panel, activity as per cent of control, single concentration in duplicate; conditions: read-out: % of control remaining
Description: as §1

[18] = biological target: T15, IKKα(h) (Homo sapiens, UniProt O15111); parameters: kinase selectivity panel, activity as per cent of control, single concentration in duplicate; conditions: read-out: % of control remaining
T15 construct: gene CHUK
Description: as §1

[19] = biological target: CDK1/cyclinB(h) (Homo sapiens, UniProt P06493); parameters: kinase selectivity panel, activity as per cent of control, single concentration in duplicate; conditions: read-out: % of control remaining
Chain of CDK1/cyclinB(h) (P06493 whole entry): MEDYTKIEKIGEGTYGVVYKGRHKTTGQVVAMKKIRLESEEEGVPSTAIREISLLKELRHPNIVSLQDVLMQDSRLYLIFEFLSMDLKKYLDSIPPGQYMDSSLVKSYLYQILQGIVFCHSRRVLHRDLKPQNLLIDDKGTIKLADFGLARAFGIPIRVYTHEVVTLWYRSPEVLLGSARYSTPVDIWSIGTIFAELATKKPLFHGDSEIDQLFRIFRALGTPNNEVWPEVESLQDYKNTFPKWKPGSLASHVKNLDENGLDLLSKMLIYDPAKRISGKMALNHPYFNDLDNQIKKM
Chain of CDK1/cyclinB(h) (P14635 whole entry partner): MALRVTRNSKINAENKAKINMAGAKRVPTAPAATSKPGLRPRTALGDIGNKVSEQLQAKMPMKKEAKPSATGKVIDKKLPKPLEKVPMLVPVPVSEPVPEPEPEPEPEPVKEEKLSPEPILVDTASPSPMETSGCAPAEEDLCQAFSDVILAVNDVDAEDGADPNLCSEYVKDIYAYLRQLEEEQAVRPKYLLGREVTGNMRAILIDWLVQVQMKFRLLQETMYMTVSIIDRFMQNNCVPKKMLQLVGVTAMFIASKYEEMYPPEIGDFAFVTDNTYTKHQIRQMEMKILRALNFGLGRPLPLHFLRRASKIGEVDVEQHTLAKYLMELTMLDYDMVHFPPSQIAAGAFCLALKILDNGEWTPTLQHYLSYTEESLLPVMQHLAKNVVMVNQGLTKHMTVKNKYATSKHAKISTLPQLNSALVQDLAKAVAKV
Description: as §1

[20] = biological target: FGFR1(h) (Homo sapiens, UniProt P11362); parameters: kinase selectivity panel, activity as per cent of control, single concentration in duplicate; conditions: read-out: % of control remaining
Description: as §1

[21] = biological target: T16, CHK2(h) (Homo sapiens, UniProt O96017); parameters: kinase selectivity panel, activity as per cent of control, single concentration in duplicate; conditions: read-out: % of control remaining
T16 construct: gene CHEK2
T16 sequence (O96017 whole entry): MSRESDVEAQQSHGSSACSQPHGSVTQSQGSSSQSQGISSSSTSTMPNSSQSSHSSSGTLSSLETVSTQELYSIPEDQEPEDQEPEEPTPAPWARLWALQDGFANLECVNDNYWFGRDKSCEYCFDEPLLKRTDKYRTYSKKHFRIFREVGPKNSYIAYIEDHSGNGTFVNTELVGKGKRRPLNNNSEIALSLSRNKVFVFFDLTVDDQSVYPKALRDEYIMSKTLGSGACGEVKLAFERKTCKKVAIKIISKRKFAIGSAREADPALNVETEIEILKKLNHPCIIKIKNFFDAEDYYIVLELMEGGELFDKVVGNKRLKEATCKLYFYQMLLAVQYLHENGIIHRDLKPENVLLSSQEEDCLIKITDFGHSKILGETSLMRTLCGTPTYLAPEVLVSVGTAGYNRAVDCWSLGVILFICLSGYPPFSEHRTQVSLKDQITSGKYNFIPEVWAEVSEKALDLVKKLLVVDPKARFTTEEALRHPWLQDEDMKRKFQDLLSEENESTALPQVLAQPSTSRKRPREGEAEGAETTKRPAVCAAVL
Description: as §1

[22] = biological target: T17, PKCβII(h) (Homo sapiens, UniProt P05771); parameters: kinase selectivity panel, activity as per cent of control, single concentration in duplicate; conditions: read-out: % of control remaining
T17 construct: gene PRKCB; isoform betaII
Description: as §1

[23] = biological target: JAK3(h) (Homo sapiens, UniProt P52333); parameters: kinase selectivity panel, activity as per cent of control, single concentration in duplicate; conditions: read-out: % of control remaining
Description: as §1

[24] = biological target: PAK4(h) (Homo sapiens, UniProt O96013); parameters: kinase selectivity panel, activity as per cent of control, single concentration in duplicate; conditions: read-out: % of control remaining
Chain of PAK4(h) (O96013 whole entry): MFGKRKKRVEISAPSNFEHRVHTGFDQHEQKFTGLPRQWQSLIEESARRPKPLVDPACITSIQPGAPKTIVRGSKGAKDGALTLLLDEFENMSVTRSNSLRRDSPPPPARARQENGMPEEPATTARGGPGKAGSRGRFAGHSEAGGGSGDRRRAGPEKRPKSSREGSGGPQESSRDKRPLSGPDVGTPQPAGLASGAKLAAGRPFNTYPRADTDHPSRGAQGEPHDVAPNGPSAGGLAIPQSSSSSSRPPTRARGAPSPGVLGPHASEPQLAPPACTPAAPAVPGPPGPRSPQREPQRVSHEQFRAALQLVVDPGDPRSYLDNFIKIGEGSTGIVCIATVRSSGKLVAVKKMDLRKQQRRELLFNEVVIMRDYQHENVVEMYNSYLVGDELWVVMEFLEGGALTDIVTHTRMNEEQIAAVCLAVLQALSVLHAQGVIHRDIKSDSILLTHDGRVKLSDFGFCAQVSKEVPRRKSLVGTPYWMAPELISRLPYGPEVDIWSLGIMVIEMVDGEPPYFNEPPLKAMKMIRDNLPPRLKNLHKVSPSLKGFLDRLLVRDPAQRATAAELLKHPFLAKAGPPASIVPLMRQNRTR
Description: as §1

[25] = biological target: T18, TAO2(h) (Homo sapiens, UniProt Q9UL54); parameters: kinase selectivity panel, activity as per cent of control, single concentration in duplicate; conditions: read-out: % of control remaining
T18 construct: gene TAOK2
Description: as §1

`Cc1ncsc1-c1ccc([C@H](C)NC(=O)[C@@H]2C[C@@H](O)CN2C(=O)[C@@H](NC(=O)CNC(=O)c2ccc(F)c(-c3ccc(N4C[C@@H](C)N(C)[C@@H](C)C4)c(NC(=O)c4c[nH]c(=O)cc4C(F)(F)F)c3)c2)C(C)(C)C)cc1` [MS67] was tested, and the inhibition at 1 µM [1] was 41.7%, the inhibition at 1 µM [2] was -8.91% and the inhibition at 1 µM [3] was 18.7%. It also gave an inhibition at 1 µM [4] of 0.02%, an inhibition at 1 µM [5] of -23% and an inhibition at 1 µM [6] of 28.5%. The inhibition at 1 µM [7] was 15.9%, the inhibition at 1 µM [8] was 3.09% and the remaining activity at 1 µM [9] was 78%. The remaining activity at 1 µM [10] was 80%, the remaining activity at 1 µM [11] was 110% and the remaining activity at 1 µM [12] was 92%. It also gave a remaining activity at 1 µM [13] of 99%, a remaining activity at 1 µM [14] of 97% and a remaining activity at 1 µM [15] of 109%. The remaining activity at 1 µM [16] was 96%, the remaining activity at 1 µM [17] was 84% and the remaining activity at 1 µM [18] was 96%. The remaining activity at 1 µM [19] was 94%, the remaining activity at 1 µM [20] was 105% and the remaining activity at 1 µM [21] was 97%. The remaining activity at 1 µM [22] was 112%, the remaining activity at 1 µM [23] was 100% and the remaining activity at 1 µM [24] was 95%. The remaining activity at 1 µM [25] was 95%.
